From patent US7259004B1, “Endophytic streptomycetes from higher plants with biological activity” (Montana State University, priority 2002, dated 2007)

How the values were obtained:
[1] = system: Escherichia coli ATCC 25922; experiment: disk diffusion assay; format: cell-based; details: MHA 35° C.
[2] = system: Human Cervical Cancer Epithelial ME180; experiment: CellTiter 96 Aqueous Non-Radioactive Cell Proliferation Assay; format: cell-based; details: Homo sapiens, ME-180; 48 hours; Table 7; read-out: IC50 Human Cervical Cancer Epithelial ME180
Experimental: (§1) The munumbicins were then tested against three human cancer cell lines (ATCC) and human primary mammary epithelial cells (HMECs) (Clonetics; Biowhittaker, Walkersville, Md.) using a CellTiter 96® Aqueous Non-Radioactive Cell Proliferation Assay kit from Promega (Madison, Wis.). The cell lines were A-549 (lung epithelial carcinoma, ATCC CCL-185), ME-180 (cervical epithelial epidermoid carcinoma, ATCC HTB-33), and BT-20 (breast epithelial cancer, ATCC HTB-19), and were grown in the media recommended by ATCC. The primary mammary cells were cultured as recommended by the manufacturer in mammary epithelial cell growth media (MEGM®). […] After seeding, the cells were incubated for five hours at 37° C. before addition of the munumbicins. Two-fold serial dilutions of the munumbicins were made in the culture medium, and a volume equal to that of the seeded cells for each dilution was added to three wells of cells. Each plate also contained some wells with cells plus medium only and some wells with medium only. […] The A-549 and ME-180 cells were incubated for 48 hours. […] The plates were incubated at 37° C. for one to four hours, and the OD490 was determined. The OD reading of all wells was corrected for background by subtracting the reading of wells containing medium only. […] Kakadumycin A was tested against three human cancer cell lines (ATCC) and human primary mammary epithelial cells using the procedure described above for the munumbicins. Kadadumycin B was tested against one human cancer cell line.

[3] = system: Human Lung Cancer Epithelial A549; experiment: as above; format: cell-based; details: Homo sapiens, A549; 48 hours; Table 7; read-out: IC50 Human Lung Cancer Epithelial A549
Experimental: as §1

[4] = system: Enterococcus faecium ATCC 51559; experiment: disk diffusion assay; format: cell-based; details: 10 micrograms per disk; ciprofloxacin 5, vancomycin 30 micrograms per disk; 35° C.
B. subtilis 1A757 = experiment: microbe, parasite or virus in culture; format: cell-based, Bacillus subtilis
[5] = system: S. maltophilia ATCC 13637; experiment: disk diffusion assay; format: cell-based, Stenotrophomas maltophilia; details: MHA 35° C.
[6] = system: Pseudomonas aeruginosa ATCC 27853; experiment: disk diffusion assay; format: cell-based; details: A3-5-1 10 micrograms; Chloramphenicol 30 micrograms; MHA 35° C.
[7] = system: Eschericia coli ATCC 10536; experiment: disk diffusion assay; details: A3-5-1 10 micrograms; Chloramphenicol 30 micrograms; MHA 35° C.
[8] = system: Micrococcus luteus ATCC 9341; experiment: disk diffusion assay; details: kakadumycin B at 10 μg; control antibiotic; MHA 35° C.
[9] = system: Streptococcus pneumoniae ATCC 49619; experiment: disk diffusion assay; format: cell-based; details: A3-5-1 10 micrograms; Chloramphenicol 30 micrograms; MHA w/5% dsb 35° C. w/5% CO2
[10] = system: Haemophilus influenzae ATCC 49247; experiment: disk diffusion assay; details: A3-5-1 10 micrograms; Chloramphenicol 30 micrograms; HTM 35° C. with 5% CO2
[11] = system: Staphylococcus aureus (GISA) ATCC 700699; experiment: disk diffusion assay; details: MHA 35° C.
[12] = system: Acinetobacter sp. ATCC 49137; experiment: disk diffusion assay; format: cell-based; details: A3-5-1 10 micrograms; Chloramphenicol 30 micrograms; MHA 35° C.
[13] = system: DNA synthesis in Bacillus subtilis; experiment: macromolecular synthesis whole cell assay, [3H]thymidine incorporation; format: cell-based; details: 1×MIC
[14] = system: Enterococcus faecalis ATCC 51299; experiment: disk diffusion assay; format: cell-based; details: A3-5-1 10 micrograms; Chloramphenicol 30 micrograms; MHA 35° C.
[15] = system: Protein synthesis in Bacillus subtilis; experiment: macromolecular synthesis whole cell assay, [3H]amino acid mixture incorporation; format: cell-based; details: 1×MIC
[16] = system: Neiseseria gonorrhoeae ATCC 49266; experiment: disk diffusion assay; details: A3-5-1 10 micrograms; Chloramphenicol 30 micrograms; GCA w/ 1% supplement in 5% CO2
[17] = system: Eschericia coli ATCC 35218; experiment: disk diffusion assay; details: A3-5-1 10 micrograms; Chloramphenicol 30 micrograms; MHA 35° C.
[18] = system: Salmonella typhimurium ATCC 13311; experiment: disk diffusion assay; details: MHA 35° C.
[19] = system: Staphylococus aureus (GISA) ATCC 700787; experiment: disk diffusion assay; details: A3-5-1 10 micrograms; Chloramphenicol 30 micrograms; MHA 35° C.
[20] = system: Staphylococcus aureus ATCC 29213; experiment: disk diffusion assay; format: cell-based; details: MHA 35° C.
S. epidermis ATCC 12228 = experiment: disk diffusion assay; format: cell-based, Staphylococcus epidermidis; details: MHA 35° C.
[21] = system: Enterococcus faecalis ATCC 29212; experiment: disk diffusion assay; format: cell-based; details: MHA 35° C.
[22] = system: Shigella dysenteriae ATCC 11835; experiment: disk diffusion assay; format: cell-based
[23] = system: Enterococcus faecium ATCC 49624; experiment: disk diffusion assay; format: cell-based; details: for Disk Diffusion, Enterococcus faecium 49624: MHA 35° C.
[24] = A3-5-1 10 micrograms, Chloramphenicol 30 micrograms
[25] = kakadumycin B at 10 μg, control antibiotic

O=C(N[C@H](CO)[C@H](O)c1ccc([N+](=O)[O-])cc1)C(Cl)Cl [Chloramphenicol, reference compound]
Disk Diffusion, Eschericia coli 25922 [1, 24]: 29 mm
Disk Diffusion, Escherichia coli 25922 [1, 25]: 26 mm
IC50 [2]: > 40 mg/L
IC50 [3]: > 40 mg/L
diameter of the zone of inhibition, Enterococcus faecium ATCC 51559 [4]: 24 mm
1×MIC against Bacillus subtilis (B. subtilis 1A757): 4 micrograms/ml
Disk Diffusion, Stenotrophomas maltophilia 13637 [5, 24]: 28 mm
Disk Diffusion, Stenotrophomas maltophilia 13637 [5, 25]: 25 mm
Disk Diffusion, Pseudomonas aeruginosa 27853 [6]: R
Disk Diffusion, Eschericia coli 10536 [7]: 28 mm
Disk Diffusion, Micrococcus luteus 9341 [8]: 29 mm
Disk Diffusion, Streptococcus pneumoniae 49619 [9]: 22 mm
Disk Diffusion, Haemophilus influenzae 49247 [10]: 23 mm
Disk Diffusion, Staphylococcus aureus (GISA) 700699 [11, 24]: 26 mm
Disk Diffusion, Staphylococcus aureus (GISA) 700699 [11, 25]: 29 mm
Disk Diffusion, Acinetobacter spp. 49137 [12]: 8 mm
% [3H]thymidine (DNA synthesis) incorporation of that of the untreated culture ([13]; 5 min): 58%
% [3H]thymidine (DNA synthesis) incorporation of that of the untreated culture ([13]; 10 min): 44%
Disk Diffusion, Enterococcus faecalis (VRE) 51299 [14]: 8 mm
% [3H]amino acid mixture (Protein synthesis) incorporation of that of the untreated culture ([15]; 5 min): 44%
% [3H]amino acid mixture (Protein synthesis) incorporation of that of the untreated culture ([15]; 10 min): 36%
Disk Diffusion, Neiseseria gonorrhoeae 49266 [16]: 33 mm
Disk Diffusion, Eschericia coli 35218 [17]: R
Disk Diffusion, Salmonella typhimurium 13311 [18, 24]: 28 mm
Disk Diffusion, Salmonella typhimurium 13311 [18, 25]: 28 mm
Disk Diffusion, Staphylococus aureus (GISA) 700787 [19]: 29 mm
Disk Diffusion, Staphylococcus aureus 29213 [20, 24]: 25 mm
Disk Diffusion, Staphylococcus aureus 29213 [20, 25]: 19 mm
Disk Diffusion, Staphylococcus epidermidis 12228 (S. epidermis ATCC 12228; [24]): 30 mm
Disk Diffusion, Staphylococcus epidermidis 12228 (S. epidermis ATCC 12228; [25]): 31 mm
Disk Diffusion, Enterococcus faecalis 29212 [21, 24]: 20 mm
Disk Diffusion, Enterococcus faecalis 29212 [21, 25]: 20 mm
diameter of the zone of inhibition, Shigella dysenteriae ATCC 11835 ([22]; 10 micrograms per disk, 35° C.): 11 mm
Disk Diffusion, Shigella dysenteriae 11835 ([22]; A3-5-1 10 micrograms, Chloramphenicol 30 micrograms, MHA 35° C.): 40 mm
diameter of the zone of inhibition, Enterococcus faecium ATCC 49624 ([23]; 10 micrograms per disk, ciprofloxacin 5, vancomycin 30 micrograms per disk, 35° C.): 24 mm
Disk Diffusion, Enterococcus faecium 49624 [23, 24]: 25 mm
Disk Diffusion, Enterococcus faecium 49624 [23, 25]: 20 mm
